The text below walks through data of patent US20060051358A1, “Immune response assessment method” (Baylor Research Institute, priority 2004, published 2006).

What all share (type): cell-based, human
Experiment [1] deals with PBMCs obtained from melanoma patients. As to the kind of experiment: EPIMAX: PBMC culture with peptides or peptide clusters, multiplex bead cytokine assay (Luminex).
Experiment [2] deals with T cells in melanoma patient PBMCs. Put plainly: Intracellular cytokine detection assay (flow cytometry). The note with it: 8 hours with anti CD28/CD49d mAbs and monensin. As for the experimental part:
FIG. 12A is a graph that depicts the immune response of a melanoma patient as evaluated according the present invention. PBMCs obtained before DC vaccination and post 8 DC vaccinations from a melanoma patient (same as FIG. 10) were stimulated with single 15-mer MART-1 peptides or diluent. The levels of IL-1a and IP-10 in the culture supernatants at 48 h of culture are shown. […] To examine this hypothesis, we used a different well-established methodology, intracellular cytokine detection assay. The same PBMCs were stimulated for 8 h with MART-1 15-mer single peptides in the presence of anti-CD28/CD49d mAb and monensin. After permeabilization of the cell membrane, the cells were stained with anti-IFN-γ mAb and the IFN-γ+ populations were analyzed with a flowcytometer (FIG. 12B).
The same patient's PBMCs were stimulated for 8 hours with MART-1 15-mer peptide#10 in the presence of antiCD28/CD49d mAb and monensin. The production of IL-2 were analyzed by staining with specific mAbs.
The same patient's PBMCs were stimulated for 8 hours with MART-1 15-mer peptide#11 in the presence of antiCD28/CD49d mAb and monensin. The production of IL-5 were analyzed by staining with specific mAbs.
(§1) FIGS. 29A-D are graphs that depict the immune response of a melanoma patients as evaluated according the present invention. PBMCs obtained from a melanoma patient were stimulated with clusters of peptides or individual peptides encoding NY-ESO1. IL-10 levels in culture supernatant at 48 hours of culture are shown (FIG. 29A). […] To explore the origin of IL-10 production, the PBMCs were stimulated with peptide#39 in the presence of anti CD28/CD49d mAbs and monensin for 8 hours, and stained with IL-10 specific mAb. […] Next, to evaluate whether this IL-10 producing T cells had regulatory properties, PBMCs stimulated with peptide #39 or irrelevant 15-mer peptide were added in transwells to a “third party” MLR to test suppression of T cell expansion by the release of soluble mediators. The MLR used CFSE-labeled CD4^+T cells and allogeneic mature DCs, both from healthy volunteers, in order to avoid the effect of peptide-specific T cell response.

Experiment [3] deals with CFSE-labeled CD4+ T cells and allogeneic mature DCs. Put plainly: Third party MLR suppression assay in transwells. The note with it: patient's PBMC stimulated with peptide added in transwells. How it is done:
as §1

The subject of experiment [4] is CD4+ / CD8+ T cells in melanoma patient PBMCs. As to the kind of experiment: CFSE dilution T cell proliferation assay, melanoma patient PBMCs. The conditions noted are these: epitopes for Th0, Th1, Th2 cells; patient 094-012, Post.
For experiment [5] the test system is unchanged. The experiment is described as above. The note with it: epitopes for Th0, Th1, Th2 cells. The text has this: FIG. 13 depicts the immune response of a melanoma patient as evaluated according the present invention. CFSE (5,6-carboxyfluorescein diacetate succinimidyl ester) is a tracer dye that permits to identify the number of cell division with a flowcytometer. As EPIMAX is a non-destructive assay, we combined with EPIMAX and CFSE technology to determine the proliferative capacity of antigen-specific T cells. […] PBMCs obtained from the same melanoma patient (same as FIG. 10) were first stained with 1 uM of CFSE, and stimulated with either clusters of overlapping peptides or individual peptides encoding MART-1. On day 8 of culture, the cells were stained with CD8-PE, CD3-PerCP, and CD4-APC, and analyzed T cell proliferation in response to peptide stimulation.
FIG. 14 depicts the immune response of a melanoma patient as evaluated according the present invention. PBMCs obtained from the same melanoma patient (same as FIG. 10) were first stained with 1 μM of CFSE, and stimulated with individual peptides encoding MART-1 in triplicates. On day 8 of culture, the cells were stained with CD8-PE, CD3-PerCP, and CD4-APC, and analyzed T cell proliferation in response to peptide stimulation.
FIGS. 21A-B depicts the immune response of a melanoma patient as evaluated according the present invention. PBMCs obtained from the same melanoma patient (same as FIG. 19) were first stained with 1 μM of CFSE, and stimulated with individual peptides encoding MART-1 in triplicates. On day 8 of culture, the cells were stained with CD8-PE, CD3-PerCP, and CD4-APC, and analyzed T cell proliferation in response to peptide stimulation. […] FIG. 21B depicts the CFSE-diluted CD4+ T cell populations in response to each MART-1 15-mer peptide within the CD4^+ T cell population.
FIGS. 22 A-C depicts the immune response of a melanoma patient as evaluated according the present invention. PBMCs obtained from a HLA-A2^neg melanoma patient who received DC vaccinations were first stained with 1 μM of CFSE, and stimulated with clusters of peptides encoding NY-ESO1. On day 8 of culture, the cells were stained with CD8-PE, CD3-PerCP, and CD4-APC, and analyzed T cell proliferation in response to peptide stimulation was analyzed based on CFSE dilution with a flowcytometer. […] FIG. 22B depicts the IL-2 levels in the culture supernatant at 48 hours of culture. […] To identify the epitope for CD4+ T cells, CFSE-stained PBMCs were stimulated with individual peptides within NY-ESO1 cluster#8. The proliferating CD4+ T cells were analyzed based on CFSE dilution with a flowcytometer on day 8.

Setting [6] is: epitopes for Th0, Th1, Th2 cells, patient 094-012, Post.

Turning to “NY-ESO1 p39: 15-mer of NY-ESO1 library, residues 153-167 (LQQLSLLMWITQCFL; UniProt P78358 153-167, looked up, fragment)”, the Type of response in experiment [1] (epitopes for CD8+ T cells, patient 094-007, Post) was found to be 1; in experiment [1] (epitopes for CD8+ T cells, patient 094-007, Pre), 1. Also, the “CD4+ T cells producing IL-10” value in experiment [2] is reported as “about 0.11%”. For the same substance, the “proliferation in third party MLR” value in experiment [3] is “significantly suppressed proliferation in the MLR”.
“gp100 p40: 15-mer of gp100 library, residues 157-171 (GQYWQVLGGPVSGLS; UniProt P40967 157-171, looked up, fragment)”: the Type of response in experiment [1] (setting [6]) is on record as 2. The proliferation entry in experiment [4] is recorded as “Yes”.
“gp100 p71: 15-mer of gp100 library, residues 281-295 (LEPGPVTAQVVLQAA; UniProt P40967 281-295, looked up, fragment)” displayed a Type of response in experiment [1] (setting [6]) of 2. Moreover, in experiment [4], the proliferation entry was “Yes”.
The substance “gp100 p78: 15-mer of gp100 library, residues 309-323 (TTDGHRPTAEAPNTT; UniProt P40967 309-323, looked up, fragment)” returned a Type of response in experiment [1] (setting [6]) of 2. For the same substance, the proliferation result in experiment [4] was “Yes”.
For the substance “gp100 p152: 15-mer of gp100 library, residues 605-619 (VLMAVVLASLIYRRR; UniProt P40967 605-619, looked up, fragment)”, the Type of response came out at 0 in experiment [1] (epitopes for Th0, Th1, Th2 cells, patient 094-009, Post); 2 in experiment [1] (setting [6]); 0 in experiment [1] (epitopes for Th0, Th1, Th2 cells, patient 094-015, Post). Besides, the “CD4+ T cell epitope identification (cytokines at 48 h, CFSE dilution day 8)” value in experiment [1] (two melanoma patients, peptides of TRP-1 cluster#25 or gp100 cluster#15) is given as “are epitopes for CD4^+ T cells”. For the same substance, the proliferation result was “Yes” in experiment [5] (patient 094-009, Post); “Yes” in experiment [5] (patient 094-015, Post); “Yes” in experiment [4].
